Entries after “also recorded” stand apart in the source; their conditions may differ.
Assays:
[1] = tested on: Splenocytes isolated from naive male C57BL/6 mice; assay: Stimulation of murine naïve splenocytes (Example 1); type: cell-based, mouse; conditions: 10 μM peptide
From the text: This example describes an initial screening assay to identify Bifidobacterium-derived peptides which can activate effector T cells, specifically, CD4 effector T cells which are characterized in part by a CD4^+ CD25^+ FoxP3^− phenotype and CD8 effector cells which are characterized in part by a CD8^+ CD25^+ FoxP3^− phenotype. Splenocytes isolated from naive male C57BL/6 mice (Taconic, 8-14 weeks of age) were resuspended in complete RPMI (RPMI containing 10% FBS plus 1% penicillin/streptomycin) to a final number of 8×10^5 cells/well in a flat-bottom 96-well plate. Cells were then stimulated with 0.05 μg/ml anti-CD3 antibody in the presence of: each peptide (10 μM in water) or ovalbumin peptide amino acids 323-339 (10 μM in water), water (Th0 min H2O), anti-CD3 antibody alone (Th0 min), or with 1 μg/ml anti-CD3, plus IL-12 (10 ng/ml), plus 5 μg/ml anti-IL-4 antibody (positive control to generate Th1 cells). Cells were incubated at 37° C., 5% CO2 for 48 h. See. FIG. 2A, FIG. 2B, and FIG. 2C.
Levels of activated (Tact) CD4 (FIG. 2A) and CD8 (FIG. 2B) T cells, defined by absence of FoxP3 and high CD25 expression, were determined by multicolor flow cytometry. Levels of T cells were then normalized to levels of the T cells when the splenocytes were treated with the OV323-339 negative control peptide. See Levels of IL-2 (FIG. 2C) and IL-17 (FIG. 2D) in culture supernatants were quantified by Luminex analysis. Levels of Granzyme B expression on gated CD8 FoxP3^− T cells were analyzed by flow cytometry. Bars represent mean±SD. (vs. Th0+H2O) by Kruskall-Wallis with uncorrected Dunn's test.
A dose response study was also performed using the above methods wherein naïve mouse splenocytes were treated with increasing doses of SG-3-0020 (1 μM, 5 μM, or 10 μM). Flow cytometry analysis was done to measure frequency of effector CD8 T cells (CD8^+, CD25^+, FoxP3), granzyme B expression on the effector CD8 T cells, and IL-2 expression.

[2] = tested on: human T cells; assay: Human T cell activation assay, anti-CD3 stimulated purified T cells (Example 2); type: cell-based
Experimental: PBMCs were obtained from 5 individual human donors. […] Furthermore, incubation of the T cells with SG-3-0020 increased secretion of IL-2 and IFN-γ (FIG. 6B). […] Such activation may enhance immune action against a tumor in vivo with or without a co-therapy.

[3] = tested on: CT26 tumor-bearing Balb/c mice; assay: Tumor infiltrating lymphocyte composition/activation in CT26 tumor-bearing Balb/c mice (Examples 3 and 9); type: in vivo, mouse
Experimental: In vivo studies were performed to study the effects of SG-3-0020 administration on, e.g., immune cell activation and tumor size and to test different routes of administration of SG-3-0020 in CT26 tumor-bearing Balb/c mice and its effects on immune modulation. This mouse model is one of the most widely used mouse models for preclinical testing of new immunotherapeutic drugs (Grosso and Jure-Kunkel, 2013, Cancer Immun, 13:5).
Mice were dosed i.v., i.p., p.t. with SG-3-0020 or PBS. For comparison mice were dosed with CD80-Fc or IgG1-Fc i.v. On Day 7, tumor samples were analyzed for tumor infiltrating lymphocyte (TIL) composition/activation by flow cytometry. The protocol used in this experiment is illustrated in FIG. 7A.
BALB/c male mice (n=5-6/group, 8 weeks of age) were inoculated s.c. with CT26 colon carcinoma cells. SG-B was administered in PBS peritumorally daily at 2.5 mg/kg. Control mice were injected with the corresponding volume of PBS. At Day 13 (AH1 staining)) or Day 7 (Ki67, CD25, OX40 staining) excised tumors were washed with PBS, dissected into smaller fragments using scalpels, and further dissociated into single cell suspensions using the Miltenyi Tumor Dissociation Kit and the GentleMACS Octo dissociator. The digested tumors were filtered through pre-separation filters, washed with PBS, and then used for flow cytometry-based analysis. T lymphocytes were gated as CD4^+ or CD8^+ and then analyzed for surface marker expression by FlowJo 10.5.3. p values calculated by Mann-Whitney test.

[4] = tested on: CT26 mouse model; assay: CT26 mouse model, tumor volume, monotherapy; type: in vivo; conditions: preliminary results, data not shown
[5] = tested on: T cells isolated from mouse spleens; assay: Mouse T cell activation, anti-CD3 coated plates (Example 4); type: cell-based; conditions: 10 mcM peptide, anti-CD3 0.1 mcg/mL, 48 hours
Experimental: 96-well culture plates were pre-coated with anti-CD3 (0.1 mcg/mL) in 200 mcL. The plates were incubated overnight at 4° C. The plates were washed with PBS three times before plating the cells (Balb/c splenocytes for T-cell isolation by EasySep™ #19851). The cells were plated at 100-200K/well in final volume of 200 mcL of AIM-V. Peptides (10mcM) or 2 mcg/mL anti-CD28 were added to the cells. The cells were incubated for 48 hours at 37° C.
The incubated cells were used for flow cytometry analysis. SG-3-0020 increased expression of T cell activation markers and proliferation of CD4 and CD8 T cells isolated from mouse spleens (FIG. 11A).
The supernatants were used for MSD analysis. SG-3-0020 increased secretion of effector cytokines by T cells isolated from mouse spleens. (FIG. 11B)

[6] = tested on: human T cells; assay: Activation markers and cytokine secretion with or without anti-CD3, or with CD3/CD28 activator, T cells (Example 5); type: cell-based
Experimental: (§1) Activation marker expression on T cells and PBMCs in the presence of peptides (10mcM) or anti-CD28 (10 mcg/mL) was determined after 48 hours of incubation, with or without 0.1 mcg/mL anti-CD3. The data were analyzed by flow cytometry (FIG. 13A-D).
Cytokine secretion on T cells in the presence of peptides (10mcM) or anti-CD28 (10 mcg/mL) after 48 h of incubation, with or without 0.1 mcg/mL anti-CD3, was determined. The data were analyzed by MSD (FIG. 14).
Human T cells were activated with ImmunoCult™ Human CD3/CD28 T Cell Activator in the presence of peptides (10mcM) and cytokine secretion was analyzed after 48 hours of incubation by MSD. […] Activation with anti-CD3 on both isolated T cells and PBMCs was required for SG-3-0020-mediated effects.

[7] = tested on: PBMCs; assay: Activation marker expression with or without anti-CD3, PBMCs (Example 5); type: cell-based, human; conditions: 10 mcM, with or without 0.1 mcg/mL anti-CD3, 48 hours
Experimental: as §1

[8] = tested on: activated human T cell; assay: NanoString nCounter Human PanCancer Immune profiling of activated T cells (Example 6); type: cell-based; conditions: RNA, T cells of 5 donors, 10 μM vs vehicle
Experimental: T cells were isolated from 5 individual blood donors and activated as described previously. RNA expression levels were determined by the NanoString nCounter Human PanCancer Immune profiling.

[9] = tested on: human T cells; assay: Phage binding to T cells, titers of eluted phages (Example 7)
Experimental: The binding of SG-3-0020 phages to target cells (naïve T-cell, activated T-cell) was tested.
Biotinylated peptide stock (1 mM) was diluted to 1 uM (×1,000-fold) with 1×PBS+2% BSA. 150 mcL of phages (multivalent display) were mixed with 70 mcL of 1×PBS+2% BSA. The solution was rotated at room temperature for 1 hour.
The cells, either naïve T-cells (about 13×10^6 cells) or activated T-cells (about 16×10^6 cells) were thawed. The cells were then centrifuged at 1,500 for 5 min at 4° C., and the supernatant was aspirated. The cell pellets were washed with 5 mL of 1×PBS+2% BSA by pipetting. This was repeated such that the pellets were centrifuged and washed a total of 3 times.
The cell pellets were resuspended with 1050 mcL of 1×PBS+2% BSA, and 100 mcL of phage (M13 bacteriophage G8P capsid antibody-FITC from antibodies-online Inc (Cat #: ABIN 125966)) were added into a well of 96-well plates (phage binding). 150 mcL of diluted biotinylated peptide were added into a well of 96-well plates (biotinylated peptide binding). 100 mcL of resuspended cells were added into the wells for phage binding and 50 mcL of resuspended cells were added into the wells for biotinylated peptide binding.
The cells were put on the rocker and incubated at 4° C. for 2 hours for binding and then centrifuged at 1,500 for 5 min at 4° C. The supernatant was discarded. […]

[10] = 0.05 μg/ml anti-CD3, 48 h, flow cytometry
[11] = anti-CD3 stimulated purified T cells
[12] = anti-CD3 stimulated purified T cells, 5 donors
[13] = vs activated T cells without SG-3-0020, data not shown
[14] = peri-tumoral injections twice daily (b.i.d.)

For “SG-3-0020: Bifidobacterium breve-derived peptide, SEQ ID NO:1 MLSTKKTKTHDHYPCGRMRDPGWHDWRACLTHQGIEEDEWPV, chemically synthesized for the Examples (Bifidobacterium breve)”, the “frequency of activated (Tact) CD4 T cells (CD25+/FoxP3-)” value [1, 10] was “increase; also recorded: enhance”, the “frequency of activated (Tact) CD8 T cells (CD25+/FoxP3-)” value [1, 10] was “increase; also recorded: enhance” and the “IL-2 secretion in culture supernatants” value ([1]; 48 h, Luminex) was “facilitate”. For the same substance, the “IL-17 secretion in culture supernatants” value ([1]; 48 h, Luminex) was “facilitate”, the “Granzyme B expression in CD8 T cells” value ([1]; 48 h, flow cytometry) was “promote induction” and the IFN-γ secretion [2, 11] was “increased”. The IL-2 secretion [2, 11] was “increased”, the IL-10 secretion [2, 11] was “increase” and the TNF-α secretion [2, 11] was “increase”. For the same substance, the “PD-1 expression on CD4+ cells” value [2, 12] was “increased”, the “PD-1 expression on CD8+ cells” value [2, 12] was “increased” and the “cytokine-stimulating activity, donors responding” value ([2]; purified T cell system in the presence of anti-CD3 antibody) was 5/5. For the same substance, the “CD4+CD25+ T cells” value [2, 13] was “increase”, the “CD4+ICOS+ T cells” value [2, 13] was “increase” and the “CD4+OX40+ T cells” value [2, 13] was “increase”. For the same substance, the “CD8+ICOS+ T cells” value [2, 13] was “increase”, the “CD8+OX40+ T cells” value [2, 13] was “increase” and the “CD8CD25+ T cells” value [2, 13] was “increase”. For the same substance, the “CD8+CD25+ cells in tumor infiltrating lymphocytes” value ([3]; Day 7, flow cytometry) was “increase”, the “CD8+Ki67+ cells in tumor infiltrating lymphocytes” value ([3]; Day 7, flow cytometry) was “increase” and the “CD8+OX40+ cells in tumor infiltrating lymphocytes” value ([3]; Day 7, flow cytometry) was “increase”. For the same substance, the “NK cells in tumor infiltrating lymphocytes” value ([3]; Day 7, flow cytometry) was “increase”, the “Tetramer staining (AH1 epitope)” value ([3]; Day 13) was “positive effect” and the “activated CD8+ T cell frequency within the TIL compartment” value ([3]; mouse, in vivo) was “increases”. For the same substance, the “NK cell frequency in the TIL compartment” value [3, 14] was “increase”, the “activated CD8+ T cell frequency in the TIL compartment” value [3, 14] was “increase” and the tumor volume [4] was “decrease”. For the same substance, the “secretion of effector cytokines” value ([5]; MSD) was “increased”, the “expression of T cell activation markers” value ([5]; flow cytometry) was “increased” and the “proliferation of CD4 and CD8 T cells” value ([5]; flow cytometry) was “increased”. The “dependence of SG-3-0020-mediated effects on activation with anti-CD3, isolated T cells” value ([6]; 10 mcM, with or without 0.1 mcg/mL anti-CD3, 48 hours) was “required”, the “cytokine secretion in combination with anti-CD28 activation” value ([6]; ImmunoCult Human CD3/CD28 T Cell Activator, 10 mcM peptide, 48 hours, MSD) was “increases activity” and the “dependence of SG-3-0020-mediated effects on activation with anti-CD3, PBMCs” value [7] was “required”. The CD96 expression [8] was “decrease”, the CTSL expression [8] was “increase” and the CXCL10 expression [8] was “decrease”. For the same substance, the CXCR6 expression [8] was “decrease”, the DUSP6 expression [8] was “increase” and the GZMK expression [8] was “decrease”. For the same substance, the IL-2 expression [8] was “increase”, the IL-3 expression [8] was “increase” and the IL-9 expression [8] was “increase”. For the same substance, the IL-10 expression [8] was “increase”, the IL-21 expression [8] was “increase” and the IL-24 expression [8] was “increase”. For the same substance, the IRF1 expression [8] was “decrease”, the ISG20 expression [8] was “decrease” and the LY9 expression [8] was “decrease”. The SLAMF7 expression [8] was “decrease”, the SMAD3 expression [8] was “decrease” and the STAT1 expression [8] was “decrease”. The TCF7 expression [8] was “decrease”, the “binding to human T cells” value ([9]; FIG. 17, phage titer) was “binds” and the “phage titer, binding to the activated T-cells compared to empty phages” value ([9]; multivalent display phage, 4° C., 2 hours) was “more bound”.

— patent publication US12168676B2, “Microbially derived peptides and proteins for immunotherapy” (Genevive, Inc., priority 2019, dated 2024)
